Assay results taken from paper PMC9569420 (Communications Biology, 2022).
Several values for one entry are separate records, joined by “and”; a condition that tells them apart may be missing. Equal entries are not always repeated.

Columns and labels:
AKT2 = target: T1, AKT2 (Homo sapiens, UniProt P31751); test: biochemical
T1 construct: purchased Reaction Biology Corporation

AURORA C = target: T2, AURORA C (Homo sapiens, UniProt Q9UQB9); test: HotSpot kinase assay; type: biochemical; conditions: read-out: % Enzyme Activity (relative to DMSO controls)
T2 construct: purchased Reaction Biology Corporation

CDK19/cyclin C = target: T3, CDK19/cyclin C (Homo sapiens, UniProt Q9BWU1); test: HotSpot kinase assay; type: biochemical; conditions: read-out: % Enzyme Activity (relative to DMSO controls)
T3 construct: purchased Reaction Biology Corporation

CDK2/cyclin A1 = target: T4, CDK2/cyclin A1 (Homo sapiens, UniProt P24941); test: HotSpot kinase assay; type: biochemical; conditions: read-out: % Enzyme Activity (relative to DMSO controls)
T4 construct: purchased Reaction Biology Corporation

CDK2/cyclin E2 = target: T5, CDK2/cyclin E2 (Homo sapiens, UniProt P24941); test: HotSpot kinase assay; type: biochemical; conditions: read-out: % Enzyme Activity (relative to DMSO controls)
T5 construct: purchased Reaction Biology Corporation

CDK3/cyclin E2 = target: T6, CDK3/cyclin E2 (Homo sapiens, UniProt Q00526); test: HotSpot kinase assay; type: biochemical; conditions: read-out: % Enzyme Activity (relative to DMSO controls)
T6 construct: purchased Reaction Biology Corporation

CDK4/cyclin D3 = target: T7, CDK4/cyclin D3 (Homo sapiens, UniProt P11802); test: HotSpot kinase assay; type: biochemical; conditions: read-out: % Enzyme Activity (relative to DMSO controls)
T7 construct: purchased Reaction Biology Corporation

CDK9/cyclin T1 = target: T8, CDK9/cyclin T1 (Homo sapiens, UniProt P50750); test: HotSpot kinase assay; type: biochemical; conditions: read-out: % Enzyme Activity (relative to DMSO controls)
T8 construct: purchased Reaction Biology Corporation

CDK9/cyclin T2 = target: T9, CDK9/cyclin T2 (Homo sapiens, UniProt P50750); test: HotSpot kinase assay; type: biochemical; conditions: read-out: % Enzyme Activity (relative to DMSO controls)
T9 construct: purchased Reaction Biology Corporation

CK1a1L = target: T10, CK1a1L (Homo sapiens, UniProt Q8N752); test: HotSpot kinase assay; type: biochemical; conditions: read-out: % Enzyme Activity (relative to DMSO controls)
T10 construct: purchased Reaction Biology Corporation

DAPK2 = target: T11, DAPK2 (Homo sapiens, UniProt Q9UIK4); test: HotSpot kinase assay; type: biochemical; conditions: read-out: % Enzyme Activity (relative to DMSO controls)
T11 construct: purchased Reaction Biology Corporation
T11 sequence (Q9UIK4 whole entry): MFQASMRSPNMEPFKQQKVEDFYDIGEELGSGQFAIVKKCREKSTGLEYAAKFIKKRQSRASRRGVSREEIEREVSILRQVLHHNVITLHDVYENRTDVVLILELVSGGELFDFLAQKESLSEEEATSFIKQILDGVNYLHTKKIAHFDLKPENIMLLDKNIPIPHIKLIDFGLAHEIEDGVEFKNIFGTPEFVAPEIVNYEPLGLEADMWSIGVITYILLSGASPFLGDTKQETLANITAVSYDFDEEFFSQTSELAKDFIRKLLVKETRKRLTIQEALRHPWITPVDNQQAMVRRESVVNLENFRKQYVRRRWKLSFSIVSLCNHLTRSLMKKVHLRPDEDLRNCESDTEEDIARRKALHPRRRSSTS

DMPK2 = target: T12, DMPK2 (Homo sapiens, UniProt Q6DT37); test: HotSpot kinase assay; type: biochemical; conditions: read-out: % Enzyme Activity (relative to DMSO controls)
T12 construct: purchased Reaction Biology Corporation
T12 sequence (Q6DT37 whole entry): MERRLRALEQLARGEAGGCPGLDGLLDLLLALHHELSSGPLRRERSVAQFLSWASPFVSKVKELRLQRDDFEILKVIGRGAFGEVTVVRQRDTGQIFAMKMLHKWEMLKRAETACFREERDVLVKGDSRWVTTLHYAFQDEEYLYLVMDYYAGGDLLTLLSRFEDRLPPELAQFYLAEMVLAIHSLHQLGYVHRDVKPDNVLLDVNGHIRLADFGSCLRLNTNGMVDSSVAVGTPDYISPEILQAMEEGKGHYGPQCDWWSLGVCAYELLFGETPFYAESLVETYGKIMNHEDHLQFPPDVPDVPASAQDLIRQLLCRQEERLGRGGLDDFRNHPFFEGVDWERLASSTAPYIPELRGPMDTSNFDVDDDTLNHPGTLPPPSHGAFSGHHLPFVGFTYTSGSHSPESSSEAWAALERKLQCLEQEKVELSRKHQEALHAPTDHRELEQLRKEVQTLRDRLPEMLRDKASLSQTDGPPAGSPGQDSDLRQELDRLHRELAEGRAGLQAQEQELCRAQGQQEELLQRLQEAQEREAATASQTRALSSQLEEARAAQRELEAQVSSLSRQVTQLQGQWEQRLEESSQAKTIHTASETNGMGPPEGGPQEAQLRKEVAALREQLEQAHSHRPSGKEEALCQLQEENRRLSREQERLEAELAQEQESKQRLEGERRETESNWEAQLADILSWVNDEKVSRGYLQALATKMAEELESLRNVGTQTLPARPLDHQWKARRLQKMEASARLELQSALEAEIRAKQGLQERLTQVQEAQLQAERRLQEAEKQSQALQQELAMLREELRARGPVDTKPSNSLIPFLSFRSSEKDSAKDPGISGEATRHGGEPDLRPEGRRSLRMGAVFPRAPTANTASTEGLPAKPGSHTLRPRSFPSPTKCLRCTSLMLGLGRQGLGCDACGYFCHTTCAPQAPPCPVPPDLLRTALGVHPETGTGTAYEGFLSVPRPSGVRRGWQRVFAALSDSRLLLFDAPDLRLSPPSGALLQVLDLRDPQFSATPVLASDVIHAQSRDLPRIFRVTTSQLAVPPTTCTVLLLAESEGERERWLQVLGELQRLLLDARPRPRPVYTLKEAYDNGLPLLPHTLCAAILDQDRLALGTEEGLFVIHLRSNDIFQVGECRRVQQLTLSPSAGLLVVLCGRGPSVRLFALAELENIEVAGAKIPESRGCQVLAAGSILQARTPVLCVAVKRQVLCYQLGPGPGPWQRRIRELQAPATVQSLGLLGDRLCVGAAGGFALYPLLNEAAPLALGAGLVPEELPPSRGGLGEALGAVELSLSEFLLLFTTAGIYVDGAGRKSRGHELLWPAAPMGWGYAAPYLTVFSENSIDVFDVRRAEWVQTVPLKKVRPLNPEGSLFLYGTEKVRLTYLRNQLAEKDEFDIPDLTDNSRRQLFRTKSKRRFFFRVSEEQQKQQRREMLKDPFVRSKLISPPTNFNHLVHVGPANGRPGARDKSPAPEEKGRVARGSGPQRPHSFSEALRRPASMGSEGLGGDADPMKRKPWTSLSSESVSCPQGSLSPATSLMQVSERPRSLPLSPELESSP

EPHA2 = target: T13, EPHA2 (Homo sapiens, UniProt P29317); test: HotSpot kinase assay; type: biochemical; conditions: read-out: % Enzyme Activity (relative to DMSO controls)
T13 construct: purchased Reaction Biology Corporation

EPHA8 = target: T14, EPHA8 (Homo sapiens, UniProt P29322); test: HotSpot kinase assay; type: biochemical; conditions: read-out: % Enzyme Activity (relative to DMSO controls)
T14 construct: purchased Reaction Biology Corporation

EPHB3 = target: T15, EPHB3 (Homo sapiens, UniProt P54753); test: HotSpot kinase assay; type: biochemical; conditions: read-out: % Enzyme Activity (relative to DMSO controls)
T15 construct: purchased Reaction Biology Corporation

FLT3 = target: T16, FLT3 (Homo sapiens, UniProt P36888); test: HotSpot kinase assay; type: biochemical; conditions: read-out: % Enzyme Activity (relative to DMSO controls)
T16 construct: purchased Reaction Biology Corporation

GLK/MAP4K3 = target: T17, GLK/MAP4K3 (Homo sapiens, UniProt Q8IVH8); test: HotSpot kinase assay; type: biochemical; conditions: read-out: % Enzyme Activity (relative to DMSO controls)
T17 construct: purchased Reaction Biology Corporation
T17 sequence (Q8IVH8 whole entry): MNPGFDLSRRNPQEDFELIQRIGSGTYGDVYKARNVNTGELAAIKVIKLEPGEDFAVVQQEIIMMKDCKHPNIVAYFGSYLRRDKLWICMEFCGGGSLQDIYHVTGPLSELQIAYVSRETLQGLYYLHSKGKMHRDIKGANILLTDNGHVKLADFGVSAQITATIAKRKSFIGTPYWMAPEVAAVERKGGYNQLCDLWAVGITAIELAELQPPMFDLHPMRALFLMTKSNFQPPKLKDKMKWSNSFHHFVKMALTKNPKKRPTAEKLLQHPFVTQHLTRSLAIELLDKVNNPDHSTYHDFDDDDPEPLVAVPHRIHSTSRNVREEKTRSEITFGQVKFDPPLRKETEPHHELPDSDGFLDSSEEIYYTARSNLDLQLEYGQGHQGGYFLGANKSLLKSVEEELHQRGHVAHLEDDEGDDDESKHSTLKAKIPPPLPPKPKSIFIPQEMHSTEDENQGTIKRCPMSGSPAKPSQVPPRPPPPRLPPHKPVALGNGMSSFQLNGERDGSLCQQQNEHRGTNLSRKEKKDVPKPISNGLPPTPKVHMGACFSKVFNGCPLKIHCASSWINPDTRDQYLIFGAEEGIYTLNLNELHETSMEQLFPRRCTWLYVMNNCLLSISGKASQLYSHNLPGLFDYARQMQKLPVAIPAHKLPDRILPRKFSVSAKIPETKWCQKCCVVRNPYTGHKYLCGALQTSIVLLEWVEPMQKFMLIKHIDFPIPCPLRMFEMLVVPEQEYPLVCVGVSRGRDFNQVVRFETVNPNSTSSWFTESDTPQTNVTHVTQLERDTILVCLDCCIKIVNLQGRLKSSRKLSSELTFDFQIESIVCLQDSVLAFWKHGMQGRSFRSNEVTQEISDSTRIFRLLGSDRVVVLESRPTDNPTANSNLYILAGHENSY

GRK7 = target: T18, GRK7 (Homo sapiens, UniProt Q8WTQ7); test: HotSpot kinase assay; type: biochemical; conditions: read-out: % Enzyme Activity (relative to DMSO controls)
T18 construct: purchased Reaction Biology Corporation

LCK = target: T19, LCK (Homo sapiens, UniProt P06239); test: HotSpot kinase assay; type: biochemical; conditions: read-out: % Enzyme Activity (relative to DMSO controls)
T19 construct: purchased Reaction Biology Corporation
T19 sequence (P06239 whole entry): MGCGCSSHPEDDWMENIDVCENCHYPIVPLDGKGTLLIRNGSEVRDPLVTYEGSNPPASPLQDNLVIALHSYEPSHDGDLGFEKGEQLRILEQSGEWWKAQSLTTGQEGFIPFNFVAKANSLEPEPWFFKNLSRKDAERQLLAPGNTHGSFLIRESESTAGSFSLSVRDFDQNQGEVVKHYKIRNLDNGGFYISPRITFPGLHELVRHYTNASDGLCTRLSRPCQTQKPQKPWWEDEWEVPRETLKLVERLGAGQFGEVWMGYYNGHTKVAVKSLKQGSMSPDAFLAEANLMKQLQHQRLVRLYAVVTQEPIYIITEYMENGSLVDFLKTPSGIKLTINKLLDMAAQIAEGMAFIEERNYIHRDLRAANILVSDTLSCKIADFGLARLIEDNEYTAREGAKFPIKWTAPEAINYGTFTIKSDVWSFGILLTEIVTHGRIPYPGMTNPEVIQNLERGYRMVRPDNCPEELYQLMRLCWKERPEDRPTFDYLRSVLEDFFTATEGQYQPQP

LIMK2 = target: T20, LIMK2 (Homo sapiens, UniProt P53671); test: HotSpot kinase assay; type: biochemical; conditions: read-out: % Enzyme Activity (relative to DMSO controls)
T20 construct: purchased Reaction Biology Corporation

MARK3 = target: T21, MARK3 (Homo sapiens, UniProt P27448); test: HotSpot kinase assay; type: biochemical; conditions: read-out: % Enzyme Activity (relative to DMSO controls)
T21 construct: purchased Reaction Biology Corporation

MEK5 = target: T22, MEK5 (Homo sapiens, UniProt Q13163); test: HotSpot kinase assay; type: biochemical; conditions: read-out: % Enzyme Activity (relative to DMSO controls)
T22 construct: purchased Reaction Biology Corporation

MKK4 = target: T23, MKK4 (Homo sapiens, UniProt P45985); test: HotSpot kinase assay; type: biochemical; conditions: read-out: % Enzyme Activity (relative to DMSO controls)
T23 construct: purchased Reaction Biology Corporation

MNK2 = target: T24, MNK2 (Homo sapiens, UniProt Q9HBH9); test: HotSpot kinase assay; type: biochemical; conditions: read-out: % Enzyme Activity (relative to DMSO controls)
T24 construct: purchased Reaction Biology Corporation
T24 sequence (Q9HBH9 whole entry): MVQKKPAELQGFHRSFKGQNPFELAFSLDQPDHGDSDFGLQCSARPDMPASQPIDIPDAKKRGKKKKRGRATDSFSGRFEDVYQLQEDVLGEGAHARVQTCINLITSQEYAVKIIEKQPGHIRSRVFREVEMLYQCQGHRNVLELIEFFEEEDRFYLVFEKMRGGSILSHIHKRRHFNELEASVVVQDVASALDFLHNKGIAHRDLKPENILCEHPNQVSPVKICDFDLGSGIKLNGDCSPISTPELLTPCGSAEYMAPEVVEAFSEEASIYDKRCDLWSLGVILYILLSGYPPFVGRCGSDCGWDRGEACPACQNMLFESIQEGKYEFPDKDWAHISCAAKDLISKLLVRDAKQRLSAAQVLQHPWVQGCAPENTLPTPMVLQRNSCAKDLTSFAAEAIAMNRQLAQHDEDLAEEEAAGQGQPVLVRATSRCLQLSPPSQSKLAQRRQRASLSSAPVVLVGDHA

MRCKa/CDC42BPA = target: T25, MRCKa/CDC42BPA (Homo sapiens, UniProt Q5VT25); test: HotSpot kinase assay; type: biochemical; conditions: read-out: % Enzyme Activity (relative to DMSO controls)
T25 construct: purchased Reaction Biology Corporation

P38d/MAPK13 = target: T26, P38d/MAPK13 (Homo sapiens, UniProt O15264); test: HotSpot kinase assay; type: biochemical; conditions: read-out: % Enzyme Activity (relative to DMSO controls)
T26 construct: purchased Reaction Biology Corporation

p70S6K/RPS6KB1 = target: T27, p70S6K/RPS6KB1 (Homo sapiens, UniProt P23443); test: HotSpot kinase assay; type: biochemical; conditions: read-out: % Enzyme Activity (relative to DMSO controls)
T27 construct: purchased Reaction Biology Corporation

PIM2 = target: T28, PIM2 (Homo sapiens, UniProt Q9P1W9); test: HotSpot kinase assay; type: biochemical; conditions: read-out: % Enzyme Activity (relative to DMSO controls)
T28 construct: purchased Reaction Biology Corporation

PKCd = target: T29, PKCd (Homo sapiens, UniProt Q05655); test: biochemical
T29 construct: purchased Reaction Biology Corporation
T29 sequence (Q05655 whole entry): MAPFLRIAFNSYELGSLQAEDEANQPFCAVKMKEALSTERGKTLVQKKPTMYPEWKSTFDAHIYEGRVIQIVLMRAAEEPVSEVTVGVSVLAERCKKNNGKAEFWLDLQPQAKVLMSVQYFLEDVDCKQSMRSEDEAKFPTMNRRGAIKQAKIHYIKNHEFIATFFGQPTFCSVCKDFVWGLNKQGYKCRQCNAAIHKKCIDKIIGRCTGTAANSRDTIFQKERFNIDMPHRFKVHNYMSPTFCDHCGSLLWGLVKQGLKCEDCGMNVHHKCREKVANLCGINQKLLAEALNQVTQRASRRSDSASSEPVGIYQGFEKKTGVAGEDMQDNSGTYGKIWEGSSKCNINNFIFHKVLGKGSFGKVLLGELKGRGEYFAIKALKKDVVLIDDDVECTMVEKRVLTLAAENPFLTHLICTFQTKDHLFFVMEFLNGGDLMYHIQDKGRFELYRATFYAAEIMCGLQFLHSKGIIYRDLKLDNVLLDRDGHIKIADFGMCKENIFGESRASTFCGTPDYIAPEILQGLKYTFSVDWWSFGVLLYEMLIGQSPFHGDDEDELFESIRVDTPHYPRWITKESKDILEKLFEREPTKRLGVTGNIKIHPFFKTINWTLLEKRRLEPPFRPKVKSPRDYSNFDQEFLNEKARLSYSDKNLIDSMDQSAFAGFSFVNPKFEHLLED

RSK4 = target: T30, RSK4 (Homo sapiens, UniProt Q9UK32); test: HotSpot kinase assay; type: biochemical; conditions: read-out: % Enzyme Activity (relative to DMSO controls)
T30 construct: purchased Reaction Biology Corporation

SIK2 = target: T31, SIK2 (Homo sapiens, UniProt Q9H0K1); test: HotSpot kinase assay; type: biochemical; conditions: read-out: % Enzyme Activity (relative to DMSO controls)
T31 construct: purchased Reaction Biology Corporation

TAOK2/TAO1 = target: T32, TAOK2/TAO1 (Homo sapiens, UniProt Q9UL54); test: HotSpot kinase assay; type: biochemical; conditions: read-out: % Enzyme Activity (relative to DMSO controls)
T32 construct: purchased Reaction Biology Corporation

EIF2AK2 = target: T33, EIF2AK2 (Homo sapiens, UniProt P19525); test: HotSpot kinase assay; type: biochemical; conditions: read-out: % Enzyme Activity (relative to DMSO controls)
T33 construct: purchased Reaction Biology Corporation

[1] = viability of confluent cells; type: cell-based, human; conditions: human, HaCat cells at 90–100% confluence, 120 h, replicates (Fig 1c source data), read-out: viability, odu as a percentage of the DMSO control
HaCat cells [2] = test: viability of confluent cells; type: cell-based, human; conditions: 10 μM; for viability, odu as a percentage of the DMSO control: replicates (Fig 1c source data)
HSV-2(G) = test: HSV binding assay (gD western blot), HaCat cells; type: cell-based; conditions: 10 μM, 4 h at 4 °C
Protocol: After 48 h incubation, plaques were counted by immunoassay using an anti–human IgG antibody peroxidase conjugate (PA1-86064, Thermo Fisher)[33]. […] Western blots were prepared and probed for gD as a marker of bound virus and β-actin as a control.

VSV-S = type: cell-based, VSV pseudotyped with SARS-CoV-2 spike
HaCat cells [3] = test: cell proliferation and viability, ~50% confluence; conditions: 0.1–100 μM, 24 and 72 h; except 72 h at 100 μM
HaCat cells [4] = test: western blot for cleaved PARP-1 or cleaved caspase 8; conditions: 0.1, 1, or 10 µM, 8 h
[5] = Supplementary Table 1, read-out: IC50 (Molar concentration)
[6] = read-out: % Enzyme Activity (relative to DMSO controls), 10µM

T1 sequence (P31751 whole entry): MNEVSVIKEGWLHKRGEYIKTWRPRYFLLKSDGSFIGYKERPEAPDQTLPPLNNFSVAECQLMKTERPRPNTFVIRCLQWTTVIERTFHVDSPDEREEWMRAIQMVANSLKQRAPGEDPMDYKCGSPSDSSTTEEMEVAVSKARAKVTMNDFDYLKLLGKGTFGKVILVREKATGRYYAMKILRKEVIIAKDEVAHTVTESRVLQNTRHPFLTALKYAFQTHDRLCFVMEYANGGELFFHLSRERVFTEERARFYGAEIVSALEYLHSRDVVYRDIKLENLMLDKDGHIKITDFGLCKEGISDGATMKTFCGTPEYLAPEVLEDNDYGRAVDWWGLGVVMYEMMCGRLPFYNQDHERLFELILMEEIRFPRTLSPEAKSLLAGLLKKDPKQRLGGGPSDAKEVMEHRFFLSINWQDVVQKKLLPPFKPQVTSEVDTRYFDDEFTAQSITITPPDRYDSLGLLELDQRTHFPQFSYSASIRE

Q: With `CO[C@@H]1[C@H](N(C)C(=O)CCC(=O)NCc2cn(CCCS(=O)(=O)O)nn2)C[C@H]2O[C@]1(C)n1c3ccccc3c3c4c(c5c6ccccc6n2c5c31)C(=O)NC4` [CIMSS] as the molecule, how does the IC50 (AKT2; [5]) read?
A: 1000 nM

Q: And the remaining activity at 10 µM (AKT2; [6])?
A: 19.1%

Q: And the inhibition at 10 µM (AKT2; read-out: inhibition of Akt2)?
A: > 75%

Q: What about the remaining activity at 10 µM (AURORA C) of the same molecule?
A: 2.59%

Q: And the remaining activity at 10 µM (CDK19/cyclin C)?
A: 37.9%

Q: What about the remaining activity at 10 µM (CDK2/cyclin A1) of the same molecule?
A: 7.95%

Q: And the remaining activity at 10 µM (CDK2/cyclin E2)?
A: 11.8%

Q: And the remaining activity at 10 µM (CDK3/cyclin E2)?
A: 22.3%

Q: And the remaining activity at 10 µM (CDK4/cyclin D3)?
A: 85.6%

Q: What about the remaining activity at 10 µM (CDK9/cyclin T1) of the same molecule?
A: 13.1%

Q: And the remaining activity at 10 µM (CDK9/cyclin T2)?
A: 8.55%

Q: And the remaining activity at 10 µM (CK1a1L)?
A: 82.8%

Q: And the remaining activity at 10 µM (DAPK2)?
A: 11.3%

Q: And the remaining activity at 10 µM (DMPK2)?
A: 10.9%

Q: And the remaining activity at 10 µM (EPHA2)?
A: 33.5%

Q: What about the remaining activity at 10 µM (EPHA8) of the same molecule?
A: 70.1%

Q: What about the remaining activity at 10 µM (EPHB3) of the same molecule?
A: 28.9%

Q: And the remaining activity at 10 µM (FLT3)?
A: 4.55%

Q: And the remaining activity at 10 µM (GLK/MAP4K3)?
A: 0.96%

Q: What about the remaining activity at 10 µM (GRK7) of the same molecule?
A: 7.19%

Q: What about the remaining activity at 10 µM (LCK) of the same molecule?
A: 3.41%

Q: And the remaining activity at 10 µM (LIMK2)?
A: 67.4%

Q: What about the remaining activity at 10 µM (MARK3) of the same molecule?
A: 1.8%

Q: And the remaining activity at 10 µM (MEK5)?
A: 40.4%

Q: What about the remaining activity at 10 µM (MKK4) of the same molecule?
A: 99%

Q: What about the remaining activity at 10 µM (MNK2) of the same molecule?
A: 4.79%

Q: And the remaining activity at 10 µM (MRCKa/CDC42BPA)?
A: 71.3%

Q: And the remaining activity at 10 µM (P38d/MAPK13)?
A: 74.7%

Q: And the remaining activity at 10 µM (p70S6K/RPS6KB1)?
A: 5.46%

Q: And the remaining activity at 10 µM (PIM2)?
A: 21.3%

Q: And the IC50 (PKCd; [5])?
A: 3.64 nM

Q: And the remaining activity at 10 µM (PKCd; [6])?
A: 8.64%

Q: What about the remaining activity at 10 µM (RSK4) of the same molecule?
A: 6.64%

Q: And the remaining activity at 10 µM (SIK2)?
A: 1.49%

Q: What about the remaining activity at 10 µM (TAOK2/TAO1) of the same molecule?
A: 36.3%

Q: What about the remaining activity at 10 µM (EIF2AK2) of the same molecule?
A: 9.89%

Q: And the viability at 120 h, 10 µM [1]?
A: 98%

Q: What about the “viability, odu as a percentage of the DMSO control” value (HaCat cells [2]; 24 h) of the same molecule?
A: 123% and 93.2% and 107%

Q: What about the “viability, odu as a percentage of the DMSO control” value (HaCat cells [2]; 120 h) of the same molecule?
A: 88.4% and 84%

Q: What about the cytotoxicity (HaCat cells [2]; up to 120 h) of the same molecule?
A: little or no cytotoxicity

Q: What about the “HSV binding to cells” value (HSV-2(G)) of the same molecule?
A: did not block

Q: And the VSV-S infection (VSV-S)?
A: inhibited

Q: And the “inhibition of cell growth” value (HaCat cells [3])?
A: no significant inhibition

Q: And the “PARP-1 or caspase 8 cleavage” value (HaCat cells [4])?
A: did not induce
